Assay results published in patent publication US5298491A, “Derivatives of endogenous mediators, their salts, method of preparation, applications and compositions in which they are present” (priority 1990, dated 1994).

Key:
rat central receptors = assay: Labelling of rat brain sections with iodinated derivatives (autoradiography); settings: 0.03 nM iodinated derivative; non-specific binding with 10^-5 M 5-HT
Procedure: (§1) The protocol for preparing the brain sections is common to all the studies which follow. The animals are decapitated after anaesthesia with chloral hydrate (400 mg/kg of gross weight). The brains are quickly removed from the skull and frozen by immersion in isopentane cooled by liquid nitrogen. 20 μm sections, prepared in a cryostat at -20° C., are mounted on gelatin-coated slides and stored at -20° C.

[1] = Distribution of labelling in vivo with a gamma camera after intravenous injection; settings: mice
Procedure: 2. Study of the distribution of the binding of the derivative S--CM-G[125]TNH2 by visualization in vivo with a gamma camera
The animals (mice) are anaesthetized and injected intravenously with the derivative S--CM-G[^125 I]TNH2. […] In this latter zone, the labelling is retained for 15 to 20 minutes before slowly disappearing.

[2] = Passage across the blood-brain barrier after intracardiac injection (brain autoradiography); type: in vivo, mice and guinea-pigs; settings: 10 minutes; for passage across the blood-brain barrier: intracardiac injection, conclusion
Procedure: (§2) 2 mice and 2 guinea-pigs are deeply anaesthetized with chloral hydrate (intraperitoneal injection of 0.12 ml of a 35% solution per 100 g of body weight).
(§3) The mice and guinea-pigs receive intracardiac injections of 200 μl and 1.5 ml, respectively, of S--CM-G[^125 I]TNH2.
(§4) After 10 minutes, the animals, still under deep anaesthesia, are decapitated and the brains are frozen and stored as indicated in Example 1.
Sections are prepared and autoradiography is carried out as described in Example 1.

5-HT1D sites [3] = assay: Labelling of 5-HT1D structures of guinea-pig brain sections (autoradiography); type: binding
Procedure: as §1
(§5) The sections are preincubated for 1 hour at 4° C. in a Krebs solution (NaCl 118 mM; KCl 4.8 mm; CaCl2 1.2 mM; MgCl2 1.2 mM; Tris-HCl 15 mM, pH 7.4) in order to remove the endogenous ligands.
(§6) The incubations take place for 60 minutes at 20° C. in a Krebs solution containing 10 μM pargyline, 5.7.10^-4 M ascorbic acid, 10 g/l of bovine serum albumin (fraction V, Sigma) and 0.03 nmol/l of the derivative S--CM-[^125 I]--R. The non-specific binding is determined on homothetic sections under the same conditions, but in the presence of 10^-5 M 5-HT.
(§7) After incubation, the sections are rinsed twice for 1 min in distilled water and dried by a stream of hot air. The sections are affixed to a kilm (Amersham) for one week in the presence of standards ([^125 I] microscale, Amersham). The films are developed for 6 min with Kodak D19, rinsed and fixed with AL4 (Kodak). Quantitative analysis of the autoradiographs is performed with an image analysis system (Segu et al., op. cit.).
In the central nervous system of the guinea-pig, the anatomical structures containing sites of the 5-HT1A type and the pharmacology of these sites are the same as in the rat. By contrast, the pharmacology of the sites contained in the substantia nigra of the guinea-pig is different from that of the sites of the same structure in the rat (Heuring and Peroutka, J. Neurosci., 7, 1987, p. 894-903). These sites are therefore denotedas 5-HT1D.

[4] = Toxicity observed at the injected dose; type: in vivo, mice and guinea-pigs
Procedure: as §2, §3, §4

5-HT1C sites [5] = assay: Labelling of rat choroid plexus (autoradiography); type: binding; settings: 0.03 nM
Procedure: as §1, §5, §6
as §7, with “cit.). […]” for “cit.).”

5-HT1A sites [6] = assay: Labelling of guinea-pig hippocampus (autoradiography); type: binding; settings: 0.03 nM
Procedure: as §1, §5, §6
as §7, with “cit.). […]” for “cit.).”

5-HT1D receptors = assay: Labelling of locus niger in postmortem human brain sections (autoradiography); type: binding
Procedure: (§8) The sections are preincubated for 1 h at 4° C. in a Krebs solution (mM: NaCl, 118; KCl, 4.5; CaCl2, 1.2; MgCl2, […]; Tris, 15; pH 7.4) in order to remove the endogenous ligands. They are then incubated at 20° C. for 60 minutes in a solution containing 10^-5 M pargyline, 57 mM ascorbic acid, 10 g/l of bovine serum albumin and 0.02 nM S--CM-G[^125 I]TNH2, alone or in the presence of increasing concentrations of serotonin. Some of the sections are incubated under identical conditions except that the radioactive probe is replaced either with 2 nM [^3 H]5-HT, or with 2 nM [^3 H]5-HT in the presence of 100 nM 8-hydroxy-2-[di-N-propylamino]tetralin (8-OH-DPAT) and 100 nM mesulergin, or with 1 nM [^3 H]8-OH-DPAT. After rinsing 2 x for 1 minute in distilled water, the sections are dried.
(§9) The slides are affixed to a tritium-sensitive film for 8 days. The film is developed for 6 minutes in D19, rinsed and fixed. The autoradiographs are quantified with a video system for image analysis (Segu et al., 1990).
(§10) a) Postmortem human brains are stored at -20° C. 10 μm sections are prepared from blocks containing either the locus niger or the Ammon's horn. The sections are treated as indicated in 4. for the monkey brain sections.
(§11) The locus niger contains virtually exclusively binding sites of the 5-HT1D type, whereas the Ammon's horn is composed predominantly of sites of the 5-HT1A type.

5-HT1A sites [7] = assay: Labelling of Ammon's horn in postmortem human brain sections (autoradiography); type: binding; settings: treated as monkey sections
Procedure: as §8, §9, §10, §11

5-HT1B sites = 5-HT1B sites (Rattus norvegicus, UniProt P28564); assay: Labelling of 5-HT1B structures of rat brain sections (autoradiography); type: binding
Procedure: as §1, §5, §6, §7
This last structure is known for containing almost exclusively binding sites of the 5-HT1A type, whereas the others contain sites of the 5-HT1B type (Hoyer et al., Eur. J. Pharmacol., 118, 1985, P. 1-12). In the anterior region, the striatum (ST) is labelled: it contains especially 5-HT1B sites; the choroid plexus (Px), which contains 5-HT1c sites, is not labelled.

5-HT1D sites [8] = biological target: T1, 5-HT1D sites (Macaca mulatta, UniProt F6SFA9); assay: Labelling of substantia nigra in monkey brain sections (autoradiography); type: binding, monkey (Macacca mulatta n.); settings: for binding to / marker for 5-HT1D sites: conclusion
T1 construct: The right hemisphere is cut out and frozen by isopentane cooled in liquid nitrogen; from tissue; host or cells: rhesus monkey brain sections (right hemisphere, 10 μm, frozen), substantia nigra
Procedure: A male monkey (Macacca mulatta n.) weighing 8 kg was sacrificed by means of an overdose of barbiturates and exsanguination. […] The right hemisphere is cut out and frozen by isopentane cooled in liquid nitrogen. The block is stored at -20° C. […] They are stored at -20° C. until required.
Some of the sections are incubated under identical conditions except that the radioactive probe is replaced either with 2 nM [^3 H]5-HT, or with 2 nM [^3 H]5-HT in the presence of 100 nM 8-hydroxy-2-[di-N-propylamino]tetralin (8-OH-DPAT) and 100 nM mesulergin, or with 1 nM [^3 H]8-OH-DPAT. After rinsing 2 x for 1 minute in distilled water, the sections are dried.
The slides are affixed to a tritium-sensitive film for 8 days. The film is developed for 6 minutes in D19, rinsed and fixed.

[9] = test system: other receptors which are not of the 5-HT type (such as β-adrenergic receptors); assay: Binding to receptors not of the 5-HT type
5-HT1C sites [10] = assay: Labelling of guinea-pig choroid plexus (autoradiography); type: binding; settings: 0.03 nM
Procedure: as §1, §5, §6, §7

5-HT1A sites [11] = assay: Labelling of rat hippocampus (autoradiography); type: binding; settings: 0.03 nM
Procedure: as §1, §5, §6
as §7, with “cit.). […]” for “cit.).”

serotonin receptors = assay: Affinity and selectivity for serotonin receptor sites; type: binding

Chain of 5-HT1B sites (P28564 whole entry): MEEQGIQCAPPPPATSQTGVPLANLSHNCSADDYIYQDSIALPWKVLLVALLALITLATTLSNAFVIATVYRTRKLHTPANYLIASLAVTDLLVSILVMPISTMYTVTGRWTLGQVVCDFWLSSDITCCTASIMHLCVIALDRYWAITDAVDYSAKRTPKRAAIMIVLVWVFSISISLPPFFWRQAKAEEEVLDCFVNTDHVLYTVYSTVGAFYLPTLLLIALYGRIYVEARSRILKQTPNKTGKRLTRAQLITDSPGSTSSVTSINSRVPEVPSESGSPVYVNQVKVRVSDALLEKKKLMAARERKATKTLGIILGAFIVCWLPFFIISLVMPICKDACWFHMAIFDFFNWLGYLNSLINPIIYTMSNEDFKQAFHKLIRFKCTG
T1 sequence (F6SFA9 1-390): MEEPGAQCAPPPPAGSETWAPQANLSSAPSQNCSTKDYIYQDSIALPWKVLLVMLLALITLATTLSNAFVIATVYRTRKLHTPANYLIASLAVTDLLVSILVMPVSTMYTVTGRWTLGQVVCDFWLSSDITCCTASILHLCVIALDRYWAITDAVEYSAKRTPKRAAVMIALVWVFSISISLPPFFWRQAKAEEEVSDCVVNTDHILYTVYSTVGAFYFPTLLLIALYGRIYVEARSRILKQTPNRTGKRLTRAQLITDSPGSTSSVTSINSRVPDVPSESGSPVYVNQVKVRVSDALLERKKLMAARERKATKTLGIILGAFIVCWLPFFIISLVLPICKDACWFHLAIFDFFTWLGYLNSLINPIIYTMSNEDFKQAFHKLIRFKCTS

Question: What does the source list for `NCCc1c[nH]c2ccc(OCC(=O)NCC(=O)N[C@@H](Cc3ccc(O)c([125I])c3)C(N)=O)cc12` [S--CM-G[^125 I]TNH2]?
Answer: labelling / specific retention on rat brain sections (rat central receptors): retained specifically on rat brain sections; labelling of the vascular system 10 minutes after the injection ([1]; 10 minutes): the labelling decreases in the vascular system, except for the heart and the cerebral vascular system; initial distribution of labelling ([1]; gamma camera): very quickly observed to diffuse into the heart, the entire vascular system and the liver; labelling of the bladder ([1]; longer term): increases in the longer term; labelling of the heart ([1]; longer term): remaining labelled for a fairly long time; labelling of brain sections after in vivo injection ([2]; intracardiac injection (mice 200 μl, guinea-pigs 1.5 ml)): no labelling; passage across the blood-brain barrier [2]: does not cross the blood-brain barrier; passage across the blood-brain barrier ([2]; listed as S--CM-G[125]TNH2): does not pass through the blood-brain barrier; labelling of the substantia nigra (5-HT1D sites [3]; 0.03 nM): labels the substantia nigra; labelling of St, SD and SN (5-HT1D sites [3]; FIG. 6, 0.03 nM): labelled; marker for 5-HT1D sites (5-HT1D sites [3]; conclusion): marker for sites with a high affinity for serotonin of the 1D type; toxicity [4]: No toxicity was observed; labelling of the choroid plexus (5-HT1C sites [5]): not labelled; labelling of the hippocampus (5-HT1A sites [6]; listed as S--CM-G[^125I]TNH2): not the hippocampus; labelling of the hippocampus (5-HT1A sites [6]; listed as S-CM-G[^125 I]TNH2): not labelled; labelling of 5-HT1D receptors of the human brain in vitro (5-HT1D receptors; conclusion): labels the 5-HT1D receptors of the human brain in vitro; labelling of the locus niger (5-HT1D receptors; postmortem, treated as monkey sections): strong labelling; labelling of the Ammon's horn (5-HT1A sites [7]): weak labelling; labelling of St, SD and SN (5-HT1B sites; FIG. 5, 0.03 nM): labelled; labelling of the striatum (5-HT1B sites; anterior region, 0.03 nM): labelled; marker specificity for 5-HT1B sites (5-HT1B sites; conclusion): specific marker for binding sites with a high affinity for serotonin of the 1B type; labelling of the substantia nigra and the dorsal subiculum (5-HT1B sites; mesencephalic region, 0.03 nM): intense labelling; labelling of the substantia nigra (5-HT1D sites [8]; 0.02 nM S-CM-G[125I]TNH2): virtually exclusive labelling of the substantia nigra; labelling of the substantia nigra (5-HT1D sites [8]; 0.02 nM S-CM-G[125I]TNH2, listed as [^125 I]S-CM-GTNH2): exclusive labelling of the substantia nigra; binding to / marker for 5-HT1D sites (5-HT1D sites [8]): marker for 5-HT1D receptors; binding to / marker for 5-HT1D sites (5-HT1D sites [8]; listed as S--CM-G[^125 I9 TNH2): specific for the 5-HT1D sites; binding to / marker for 5-HT1D sites (5-HT1D sites [8]; listed as S--CM-G[^125 I ]TNH2): binds to the 5-HT1D sites; selectivity vs receptors not of the 5-HT type [9]: high selectivity without binding to other receptors which are not of the 5-HT type; labelling of the choroid plexus (5-HT1C sites [10]): not labelled; labelling of the hippocampus (5-HT1A sites [11]): no labelling; labelling of the hippocampus (5-HT1A sites [11]; listed as S-CM-G[^125 I]TNH2): not labelled; preferential affinity among 5-HT1 sites (serotonin receptors; 5-HT1B and 5-HT1D vs 5-HT1A and 5-HT1C): preferential affinity for the 5-HT1B and 5-HT1D sites compared with the 5-HT1A and 5-HT1C sites; ligand labelling of the 5-HT1D sites (serotonin receptors; compared with other ligands): only ligand to label the 5-HT1D sites
